In US20250049786A1, “DOPAMINE D3/D2 RECEPTOR MODULATING COMPOUNDS” (Richter Gedeon Nyrt., priority 2023, published 2025):

Columns and labels:
human 5-HT2A receptor = human 5-HT2A receptor (Homo sapiens (Human), UniProt P28223); assay: Competitive binding assay at human 5-HT2A receptors ([3H]ketanserin); details: CHO-K1 membranes, 1 nM [3H]ketanserin
Method: Radioactivity was determined with a MicroBeta^2® microplate counter (PerkinElmer).

[1] = Thermodynamic solubility study (RT, 24 hours); format: physicochemical; details: PBS pH = 7.4, 24 hours
Method: (§1) The resulted mixtures were shaken at room temperature (RT) for 24 hrs (to the solution equilibrium) and were filtrated on a Millipore MultiSreen Filter Plate (0.45 μ). Concentrations of the filtrates were determined by LC/UV/MS based on a 5-point calibration. (When the solid material dissolved totally in the aqueous test medium the result should be considered as a minimal value.) Results are shown in Table 2.

[2] = Thermodynamic solubility study (37° C., 4 hours); format: physicochemical; details: PBS pH = 7.4, 4 hours
Method: as §1, with “mixtures/oversaturated solutions are” for “mixtures were”, “37° C.” for “room temperature (RT)”, “4” for “24”, “are” for “were”, “μm).” for “μ).”

[3] = test system: Phencyclidine-induced hypermotility in rats; assay: Phencyclidine-induced hypermotility in rats; format: in vivo, rat; details: minimum effective dose, time spent with ambulation over one hour
Method: Spontaneous locomotor activity was measured using a six-channel activity monitor manufactured by Experimetria Ltd. (Budapest, HU). […] Additional arrays of photocells (30 pairs) were placed along opposite sides of the cage at different heights (6.5 cm, 12 cm, 18 cm and 23 cm) in order to detect rearing responses.
Test compounds were administered to study animals either orally or subcutaneously, with ten animals per treatment group. In these studies, male Harlan-Wistar rats (Toxi-Coop, Budapest, HU) weighing 190-210 grams were used. After oral administration of test compound or vehicle, animals were individually habituated to the activity monitors for 30 minutes. In the cases of subcutaneous administration of test compounds, rats were first habituated for 15 minutes to the activity monitors, then treated with the test compound or vehicle followed by replacing them into the activity monitors for an additional 15-minute period of habituation. […]
Data were analyzed using GraphPad® Prism® 9 software (GraphPad, San Diego, CA, USA). […] Drug effect was evaluated using Analysis of Variance (ANOVA, or Welch's ANOVA when appropriate) followed by Dunnett's multiple comparisons test. When appropriate, the ED50 value was determined from percent inhibition data from linear regression analysis.

human D2L receptors [4] = target: T1, human D2L receptors (Homo sapiens (Human), UniProt P14416); assay: Competitive binding assay at human D2L receptors using [3H]spiperone; details: CHO-K1 membranes, 0.16 nM [3H]spiperone
Method: CHO-K1 cells expressing human recombinant D2L receptors were washed with phosphate-buffered saline (PBS). Cells were scraped from the plates and centrifuged at 1000×g. Cells were disrupted using a Teflon® pestle homogenizer in buffer containing 25 mM Tris-HCl, pH=7.4, 6 mM MgCl2, 1 mM EDTA, 10 mM phenylmethylsulfonyl fluoride (PMSF). The resulting suspension was centrifuged at 1000×g. The supernatant was collected and centrifuged at 41,000×g. The supernatant was discarded, and the pellet was resuspended in above buffer. The membrane preparation was then aliquoted and stored at −70° C.
Non-specific binding (NSB) was determined in the presence of 10 μM haloperidol (Sigma-Aldrich). After incubation, samples were filtered over UniFilter® GF/C plates (PerkinElmer), washed and Microscint™-20 scintillation cocktail was added. Radioactivity was determined with a MicroBeta^2® microplate counter (PerkinElmer).
From scintillation counts, NSB was subtracted to yield specific binding which was normalized to vehicle-treated samples and converted to displacement % values. IC50 values were determined by a non-linear, least squares regression analysis using MathIQ™ (ID Business Solutions Ltd., Surrey, UK).

human D2L receptors [5] = target: T1, human D2L receptors; assay: Competitive binding assay at human D2L receptors using [3H]raclopride; details: CHO-K1 membranes, 2 nM [3H]raclopride
Method: (§2) The membrane preparation was then aliquoted and stored at −70° C.

human D3 receptors [6] = target: T2, human D3 receptors (Homo sapiens (Human), UniProt P35462); assay: Competitive binding assay at human D3 receptors using [3H]spiperone; details: CHO-K1 membranes, 0.7 nM [3H]spiperone
Method: Cells were scraped from the plates and centrifuged at 1000×g. […] The supernatant was collected and centrifuged at 41,000×g. The supernatant was discarded, and the pellet was resuspended in above buffer.
IC50 values were determined by a non-linear, least squares regression analysis using MathIQ™ (ID Business Solutions Ltd., Surrey, UK).

human D3 receptors [7] = target: T2, human D3 receptors; assay: Competitive binding assay at human D3 receptors using [3H]raclopride; details: CHO-K1 membranes, ca. […] [3H]raclopride
Method: as §2

T2 sequence (P35462 whole entry): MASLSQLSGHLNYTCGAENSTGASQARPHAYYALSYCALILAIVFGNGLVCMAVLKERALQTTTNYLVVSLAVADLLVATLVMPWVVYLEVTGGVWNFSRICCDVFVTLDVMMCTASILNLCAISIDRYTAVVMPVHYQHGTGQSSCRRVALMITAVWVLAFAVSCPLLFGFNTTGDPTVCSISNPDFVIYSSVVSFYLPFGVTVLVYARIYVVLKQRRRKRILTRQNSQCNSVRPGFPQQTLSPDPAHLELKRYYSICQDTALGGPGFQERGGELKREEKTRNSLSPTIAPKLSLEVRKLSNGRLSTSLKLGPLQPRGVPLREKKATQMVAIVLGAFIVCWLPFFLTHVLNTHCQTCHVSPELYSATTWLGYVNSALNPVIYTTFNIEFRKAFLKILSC
T1 sequence (P14416 whole entry): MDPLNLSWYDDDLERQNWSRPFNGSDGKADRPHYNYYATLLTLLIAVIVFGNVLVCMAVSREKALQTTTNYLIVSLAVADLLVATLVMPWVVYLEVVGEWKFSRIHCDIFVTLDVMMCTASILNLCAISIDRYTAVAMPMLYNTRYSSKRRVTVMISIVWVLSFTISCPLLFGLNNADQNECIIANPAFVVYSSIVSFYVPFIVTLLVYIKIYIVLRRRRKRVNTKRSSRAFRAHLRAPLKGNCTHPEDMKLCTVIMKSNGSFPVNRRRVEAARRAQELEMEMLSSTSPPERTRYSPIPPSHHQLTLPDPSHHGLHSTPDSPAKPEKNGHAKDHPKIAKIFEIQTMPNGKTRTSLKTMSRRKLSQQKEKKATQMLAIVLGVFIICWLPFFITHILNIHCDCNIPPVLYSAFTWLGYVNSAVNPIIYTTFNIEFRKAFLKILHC
human 5-HT2A receptor, sequence (P28223 whole entry): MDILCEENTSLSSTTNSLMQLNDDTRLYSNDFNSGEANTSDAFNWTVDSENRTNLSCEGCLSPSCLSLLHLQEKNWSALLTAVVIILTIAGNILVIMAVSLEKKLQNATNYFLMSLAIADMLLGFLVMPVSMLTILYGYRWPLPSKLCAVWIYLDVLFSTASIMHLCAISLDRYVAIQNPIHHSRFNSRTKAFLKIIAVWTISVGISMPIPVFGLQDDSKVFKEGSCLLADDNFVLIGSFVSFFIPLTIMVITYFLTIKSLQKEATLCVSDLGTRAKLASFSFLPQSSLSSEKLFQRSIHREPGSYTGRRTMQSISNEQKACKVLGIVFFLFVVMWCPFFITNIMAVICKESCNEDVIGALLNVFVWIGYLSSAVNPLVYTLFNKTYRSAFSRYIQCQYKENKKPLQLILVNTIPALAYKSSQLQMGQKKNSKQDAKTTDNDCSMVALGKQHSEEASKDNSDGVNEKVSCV

| 5-HT2A pKi (human 5-HT2A receptor) | Thermodynamic sol. [1] [µM] | Thermodynamic sol. [2] [µM] | D2L pKi [3H]spiperone (human D2L receptors [4]) | D2L pKi [3H]raclopride (human D2L receptors [5]) | D3 pKi [3H] spiperone (human D3 receptors [6]) | D3 pKi [3H]raclopride (human D3 receptors [7]) | SMILES | PCP (MED, mg/kg) [3] [mg/kg] |
| --- | --- | --- | --- | --- | --- | --- | --- | --- |
| 7.64 | 45.3 ± 0.6 | 10.9 ± 0.3 |  |  |  |  | CCOCN(C)C(=O)N[C@H]1CC[C@H](CCN2CCN(c3cccc(Cl)c3Cl)CC2)CC1 [Example 1, N′-[(1r,4r)-4-{2-[4-(2,3-dichlorophenyl)piperazin-1-yl]ethyl}cyclohexyl]-N-(ethoxymethyl)-N-methylurea] | 0.4 |
| 7.81 | 50.93 ± 2.3 | 58.93 ± 5.32 | 8.93 | 8.90 | 9.77 | 9.15 | COCN(C)C(=O)N[C@H]1CC[C@H](CCN2CCN(c3cccc(Cl)c3Cl)CC2)CC1 [Example 2, N′-[(1r,4r)-4-{2-[4-(2,3-dichlorophenyl)piperazin-1-yl]ethyl}cyclohexyl]-N-(methoxymethyl)-N-methylurea] |  |
|  | 39.68 ± 2.15 | 30.50 ± 3.06 | 8.93 | 8.94 | 9.74 |  | CCCOCN(C)C(=O)N[C@H]1CC[C@H](CCN2CCN(c3cccc(Cl)c3Cl)CC2)CC1 [Example 3, N′-[(1r,4r)-4-{2-[4-(2,3-dichlorophenyl)piperazin-1-yl]ethyl}cyclohexyl]-N-methyl-N-(propoxymethyl)urea] |  |
|  | 6.2 ± 0.3 | 4.9 ± 0.3 |  |  |  |  | CCCN(C)C(=O)N[C@H]1CC[C@H](CCN2CCN(c3cccc(Cl)c3Cl)CC2)CC1 [Ref. Ex. 1, N-[(1r,4r)-4-{2-[4 (2,3-dichlorophenyl)piperazin-1-yl]ethyl}cyclohexyl]-N-methyl-N-propylurea, reference compound] |  |
|  |  |  |  |  |  |  | CN(C)C(=O)N[C@H]1CC[C@H](CCN2CCN(c3cccc(Cl)c3Cl)CC2)CC1 [Ref. Ex. 2, N′-[(1r,4r)-4-{2-[4-(2,3-dichlorophenyl)piperazin-1-yl]ethyl}cyclohexyl]-N,N-dimethylurea, reference compound] | 0.1 |
